Experimental data as given in US8436006B2, “2-amino-quinazoline derivatives useful as inhibitors of β-secretase (BACE)” (Jansssen Pharmaceutica N.V., priority 2004, dated 2013).

Molecular target: T1, β-secretase (BACE) (Homo sapiens, UniProt P56817)
T1 construct: purchased Panvera
Experiment: BACE FS1% Inhibition Assay (Example 160)
Format: biochemical
Method: The following reagents were used in this assay: sodium acetate, PEB8000 (Sigma), DMSO, HEPES, FS1 substrate [[…]], β-secretase (BACE) (Panvera), and 96-well plate (HE microplate, Molecular Devices). […] The FS1-substrate stock solution was prepared in DMSO as a 10 mg/mL solution. The FS1-substrate working solution was prepared by diluting the 10 mg/mL stock solution with substrate assay buffer to a final concentration of 300 μg/mL. The β-secretase (BACE) working solution was prepared by diluting a 0.83 mg/mL BACE stock solution with enzyme assay buffer to a final concentration of 4 μg/mL. Test compounds were dissolved in DMSO to 10 mM. […] The screening procedure for this assay was as follows: 15 μL of BACE working solution was pipetted into each well of a 96-well plate. To each well was the pipetted 2 μL of test compound at the selected concentration. Test compound and BACE were then mixed with a pipettor and incubated for 20 min at room temperature. To each well was then added 10 μL of the FS1 substrate working solution. The plates were then incubated for 1 hour at room temperature. […] The procedure for the blank was as follows. 15 μL of assay buffer was pipetted into each well to be used as a blank control. To each well was then added 2 μL of vehicle and 10 μL of FS1-substrate working solution. The plates were then incubated for 1 hour at room temperature. […] The procedure for the positive control was as follows: 15 μL of BACE working solution was pipetted into each well to be used as a positive control. To each well was then pipetted 2 μL of vehicle. Vehicle and BACE were then mixed with a pipettor and incubated for 20 min at room temperature. To each well was then added 10 μL of the FS1 substrate working solution. The plates were then incubated for 1 hour at room temperature. […] For test compounds, % inhibition was determined at each concentration as follows: [formula]

T1 sequence (P56817 46-501): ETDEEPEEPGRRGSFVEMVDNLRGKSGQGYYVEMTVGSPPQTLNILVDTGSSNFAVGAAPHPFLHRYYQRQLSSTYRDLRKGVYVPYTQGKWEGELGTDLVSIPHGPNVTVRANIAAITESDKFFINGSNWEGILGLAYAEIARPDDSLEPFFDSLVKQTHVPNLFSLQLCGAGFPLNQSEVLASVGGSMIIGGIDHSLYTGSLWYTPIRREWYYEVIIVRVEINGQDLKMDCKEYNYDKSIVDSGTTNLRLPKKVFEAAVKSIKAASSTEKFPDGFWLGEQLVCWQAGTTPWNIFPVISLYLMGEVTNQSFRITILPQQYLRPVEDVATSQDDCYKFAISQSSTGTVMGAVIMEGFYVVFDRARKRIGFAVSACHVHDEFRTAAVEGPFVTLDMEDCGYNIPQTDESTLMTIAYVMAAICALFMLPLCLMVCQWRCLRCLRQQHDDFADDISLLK

% Inhibition (FS) (0.3 μM test compound) [%] | % Inhibition (FS) (1 μM test compound) [%] | % Inhibition (FS) (3 μM test compound) [%] | % Inhibition (FS) (0.3 μM test compound, 0.3 µM) [%] | % Inhibition (FS) (1 μM test compound, 1 µM) [%] | % Inhibition (FS) (3 μM test compound, 3 µM) [%] | SMILES
<30 | <30 | <30 |  |  |  | NC1=Nc2ccc(-c3ccc4ccccc4c3)cc2CN1CCNC(=O)C1CCC1 [Compound 663]
<30 | <30 | <30 |  |  |  | NC1=Nc2ccc(-c3ccc4ccccc4c3)cc2CN1CCNC(=O)C1CCCC1 [Compound 664]
35 | <30 | <30 |  |  |  | NC1=Nc2ccc(-c3ccc4ccccc4c3)cc2CN1CCNC(=O)C12CC3CC(CC(C3)C1)C2 [Compound 665]
37 | <30 | <30 |  |  |  | CCCC(=O)NCCN1Cc2cc(-c3ccc4ccccc4c3)ccc2N=C1N [Compound 666]
33 | <30 | <30 |  |  |  | CC(C)(C)C(=O)NCCN1Cc2cc(-c3ccc4ccccc4c3)ccc2N=C1N [Compound 667]
<30 | <30 | <30 |  |  |  | CC(C)CCC(=O)NCCN1Cc2cc(-c3ccc4ccccc4c3)ccc2N=C1N [Compound 668]
<30 | <30 | 32 |  |  |  | CCCCC(CC)C(=O)NCCN1Cc2cc(-c3ccc4ccccc4c3)ccc2N=C1N (stereo not drawn) [Compound 669]
<30 | <30 | 44 |  |  |  | NC1=Nc2ccc(-c3cnc4ccccc4c3)cc2CN1CCNC(=O)C1CCC1 [Compound 670]
<30 | 30 | <30 |  |  |  | NC1=Nc2ccc(-c3cnc4ccccc4c3)cc2CN1CCNC(=O)C1CCCC1 [Compound 671]
34 | <30 | <30 |  |  |  | CCCC(=O)NCCN1Cc2cc(-c3cnc4ccccc4c3)ccc2N=C1N [Compound 673]
36 | <30 | 41 |  |  |  | CC(C)(C)C(=O)NCCN1Cc2cc(-c3cnc4ccccc4c3)ccc2N=C1N [Compound 674]
<30 | 73 | 80 |  |  |  | NC1=Nc2ccc(-c3ccc4ccccc4c3)cc2CN1CCNC(=O)CCC(F)(F)F [Compound 686]
<30 | 50 | 87 |  |  |  | NC1=Nc2ccc(-c3ccccc3F)cc2CN1CCNC(=O)C1CCOCC1 [Compound 687]
33 | 82 |  |  |  |  | NC1=Nc2ccc(-c3ccccc3Cl)cc2CN1CCNC(=O)C1CCOCC1 [Compound 689]
<30 | <30 | 52 |  |  |  | NC1=Nc2ccc(-c3ccccc3Cl)cc2CN1CCNC(=O)C1CCC(C(F)(F)F)CC1 (stereo not drawn) [Compound 690]
<30 | <30 | 51 |  |  |  | CC(=O)N1CCC(C(=O)NCCN2Cc3cc(-c4ccccc4Cl)ccc3N=C2N)CC1 [Compound 691]
<30 | <30 | 84 |  |  |  | Cc1ccccc1-c1ccc2c(c1)CN(CCNC(=O)C1CCC(C(F)(F)F)CC1)C(N)=N2 (stereo not drawn) [Compound 694]
<30 | <30 | 54 |  |  |  | CC(=O)N1CCC(C(=O)NCCN2Cc3cc(-c4ccccc4C)ccc3N=C2N)CC1 [Compound 695]
<30 | 72 |  |  |  |  | COC1CCCC(C(=O)NCCN2Cc3cc(-c4ccccc4C)ccc3N=C2N)C1 (stereo not drawn) [Compound 696]
<30 | <30 | 63 |  |  |  | COc1ccccc1-c1ccc2c(c1)CN(CCNC(=O)C1CCOCC1)C(N)=N2 [Compound 697]
<30 | <30 | 54 |  |  |  | NC1=Nc2ccc(-c3ccccc3)cc2CN1CCNC(=O)C1CCC(C(F)(F)F)CC1 (stereo not drawn) [Compound 701]

Second part, the molecule before the results:

SMILES | % Inhibition (FS) (0.3 μM test compound) [%] | % Inhibition (FS) (1 μM test compound) [%] | % Inhibition (FS) (3 μM test compound) [%] | % Inhibition (FS) (0.3 μM test compound, 0.3 µM) [%] | % Inhibition (FS) (1 μM test compound, 1 µM) [%] | % Inhibition (FS) (3 μM test compound, 3 µM) [%]
COC(=O)C1CCCC(N(C)C(=O)CCC(C2CCCCC2)N2Cc3cc(Oc4ccccc4)ccc3N=C2N)C1 (mixture of isomers) [Compound 777] | 38 | 97 |  |  |  | 
CCCCCC(CCC(=O)NC1CCCCC1)N1Cc2cc(Oc3ccccc3)ccc2N=C1N (stereo not drawn) [Compound 149] | 32 | 71 | 111 |  |  | 
NC1=Nc2ccc(Oc3ccccc3)cc2CN1CCNC(=O)C1(c2ccc(Cl)cc2)CCCC1 [Compound 196] | 65 | 96 | 120 |  |  | 
COc1ccc(C(CCC(=O)N(C)C2CCCCC2)N2Cc3cc(Oc4ccccc4)ccc3N=C2N)cc1 (stereo not drawn) [Compound 298] | <30 | 75 | 110 |  |  | 
CCCC(CCC)C(=O)NCC(C1CCCCC1)N1Cc2cc(Oc3ccccc3)ccc2N=C1N (stereo not drawn) [Compound 302] | <30 | 72 | 108 |  |  | 
CC(C)[C@H](CNC(=O)C1CCCCC1)N1Cc2cc(Oc3ccccc3)ccc2N=C1N [Compound 561] | 114 | 118 | 125 |  |  | 
CC(C)C(CNC(=O)C12CC3CC(CC(C3)C1)C2)N1Cc2cc(Oc3ccccc3)ccc2N=C1N (stereo not drawn) [Compound 562] | 106 | 118 | 128 |  |  | 
CN(C(=O)CCC(C1CCCCC1)N1Cc2cc(Oc3ccccc3)ccc2N=C1N)C1CCC(O)CC1 (stereo not drawn) [Compound 639] |  |  |  | <30 | <30 | 48
Cc1ccccc1-c1ccc2c(c1)CN(CCNC(=O)CCC(C)C)C(N)=N2 [Compound 661] | 68 | 98 |  |  |  | 
CCCCC(CC)C(=O)NCCN1Cc2cc(-c3ccccc3C)ccc2N=C1N (stereo not drawn) [Compound 662] | 66 | 97 |  |  |  | 
NC1=Nc2ccc(-c3cnc4ccccc4c3)cc2CN1CCNC(=O)C12CC3CC(CC(C3)C1)C2 [Compound 672] | <30 | <30 | <30 |  |  | 
CC(C)CCC(=O)NCCN1Cc2cc(-c3cnc4ccccc4c3)ccc2N=C1N [Compound 675] | 35 | <30 | <30 |  |  | 
CCCCC(CC)C(=O)NCCN1Cc2cc(-c3cnc4ccccc4c3)ccc2N=C1N (stereo not drawn) [Compound 676] | 33 | <30 | 44 |  |  | 
Cc1ccccc1-c1ccc2c(c1)CN(CCNC(=O)CCC(F)(F)F)C(N)=N2 [Compound 678] | 51 | 88 | 99 |  |  | 
Cc1ccccc1-c1ccc2c(c1)CN(CCNC(=O)CC(C)C(F)(F)F)C(N)=N2 (stereo not drawn) [Compound 679] | 78 | 99 |  |  |  | 
NC1=Nc2ccc(-c3ccccc3F)cc2CN1CCNC(=O)CCC(F)(F)F [Compound 680] | 42 | 75 | 90 |  |  | 
CC(CC(=O)NCCN1Cc2cc(-c3ccccc3F)ccc2N=C1N)C(F)(F)F (stereo not drawn) [Compound 681] | 67 | 100 |  |  |  | 
NC1=Nc2ccc(-c3ccccc3Cl)cc2CN1CCNC(=O)CCC(F)(F)F [Compound 682] | 39 | 77 | 97 |  |  | 
CC(CC(=O)NCCN1Cc2cc(-c3ccccc3Cl)ccc2N=C1N)C(F)(F)F (stereo not drawn) [Compound 683] | 64 | 86 |  |  |  | 
NC1=Nc2ccc(-c3ccccc3)cc2CN1CCNC(=O)CCC(F)(F)F [Compound 684] | 33 | 38 | 78 |  |  | 
CC(CC(=O)NCCN1Cc2cc(-c3ccccc3)ccc2N=C1N)C(F)(F)F (stereo not drawn) [Compound 685] | 50 | 90 |  |  |  | 
NC1=Nc2ccc(-c3ccccc3F)cc2CN1CCNC(=O)C1CCC(C(F)(F)F)CC1 (stereo not drawn) [Compound 688] | <30 | 36 | 81 |  |  | 
COc1ccccc1-c1ccc2c(c1)CN(CCNC(=O)C1CCC(C(F)(F)F)CC1)C(N)=N2 (stereo not drawn) [Compound 698] | <30 | <30 | 64 |  |  | 
COc1cccc(F)c1-c1ccc2c(c1)CN(CCNC(=O)C1CCOCC1)C(N)=N2 [Compound 699] | 31 | 64 | 93 |  |  | 
COc1cccc(F)c1-c1ccc2c(c1)CN(CCNC(=O)C1CCC(C(F)(F)F)CC1)C(N)=N2 (stereo not drawn) [Compound 700] | <30 | 36 | 85 |  |  | 
